# Assay results reported in patent publication US6048523A, “Polyester cyclic compounds, their complexes and bonded bodies” (priority 1996, dated 2000).
# What was measured:
# lactic acid bacteria = test: multiplication of lactic acid bacteria in MRS medium; format: cell-based; settings: 0.25 mg/10 ml MRS medium, 48 hours; read-out: Multiplication rates to control
# Procedure: Pre-cultivated lactic acid bacteria were seeded into each MRS medium in a predetermined amount. After 48 hours, it was diluted to a predetermined magnification and inoculated on an MRS agar medium to measure the number of the bacteria.
# Yoshida sarcoma cells = test: suppression of Yoshida sarcoma cells in culture; format: cell-based; settings: Rattus norvegicus, 72 h, 3 days, read-out: suppression rate to control
# Procedure: A concentration of each compound or complex in the culture solution was adjusted to 1 mg/ml, 0.5 mg/ml, 0.25 mg/ml or 0.125 mg/ml. After the sarcoma cells were cultivated for 3 days, the number of the cells was measured.
# Yoshida sarcomas = test: Yoshida sarcoma transplanted into rat, oral administration; format: in vivo, Donryu-rat; settings: 8 mg/kg/day, 2 weeks
# Procedure: Yoshida sarcomas were transplanted into a Donryu-rat of an age of 5 weeks. […] After the administration, sizes of the sarcomas were measured.
# [1] = system: lactic acid bacteria in the bowel; test: number of lactic acid bacteria in the bowel of rats after oral administration; format: in vivo, rat; settings: oral 4 mg/kg/day, 4 weeks; upper limit of the measurement 20
# Description: After the administration, content of the bowel of each rat was taken, diluted to a predetermined magnification and inoculated on an MRS agar medium to measure the number of lactic acid bacteria in the bowel.
# macrophages = test: migration ability of macrophages (glass capillary method) after oral administration; format: in vivo, SD rat; settings: oral 4 mg/kg/day, 4 weeks; migration area after 24 hours; ratio to control group
# Procedure: After the administration, liquid paraffin was administered into peritoneal cavity of each rat. Three days later, peritoneal exudate cells were taken. Migration ability of macrophages produced from the peritoneal exudate cells was tested by glass capillary method. After 24 hours, a migration area of the macrophage was measured and a ratio of the measured migration area to that of control group was calculated.
smiles,measurement,setting,value
"CC1OC(=O)C(C)OC1=O (stereo not drawn) [formula (4), lactide]",activity at 25 µg/mL,lactic acid bacteria,116%
same,inhibition at 125 µg/mL,Yoshida sarcoma cells; 0.125 mg/ml,-18.2%
same,inhibition at 250 µg/mL,Yoshida sarcoma cells; 0.25 mg/ml,0%
same,inhibition at 500 µg/mL,Yoshida sarcoma cells; 0.5 mg/ml,0%
same,inhibition at 1000 µg/mL,Yoshida sarcoma cells; 1 mg/ml,40.9%
same,Size of sarcoma,Yoshida sarcomas; average values,3216.6 mm^3
same,Suppression rate,Yoshida sarcomas; versus control,57.9%
same,Ratio to control (number of lactic acid bacteria in the bowel),[1],3.8
same,Ratio of the migration area,macrophages,1.13
